Earlier results, collected in US20210196697A1, “COMBINATION THERAPIES FOR TREATING BIPOLAR DISORDER AND ADHD, AND METHODS FOR USING THE SAME” (PsychNostics, LLC, priority 2017, published 2021).

How the values were obtained:
[1] = test system: SK-N-SH Neuroblastoma Cells; conditions: addition of carbachol to [3H]cytidine-prelabeled cells

For `COC(=O)C(c1ccccc1)C1CCCCN1` (centres unmarked) [MPH, methylphenidate], the “effect on MPR” value (ADHD patients) is given as “reduces the MPR in a dose dependant manner”.
In the case of `[Li]` [Li, lithium], the therapeutic level (lithium in BD patients) is listed as “around 1.2 mM” and the toxic level (lithium in BD patients) is listed as “about 2 mM”.
For `C[N+](C)(C)CCOC(N)=O` [carbachol], the “accumulation of labeled CDP-DAG” value [1] is given as “four to fivefold increase”.
For `CN1CCN(C2=Nc3cc(Cl)ccc3Nc3ccccc32)CC1` [clozapine], the “therapeutic level / therapeutic reference range” value (serum / blood plasma) is listed as 200 to 1000 ng/mL.
